The source of these data is patent publication US20260184687A1, “DIHYDROINDENE DERIVATIVES AS MALT1 INHIBITORS” (C4X Discovery Limited, priority 2022, published 2026).

By IC50 is commonly meant the midpoint of a concentration-inhibition curve.

Test [1] deals with IL-2 release from stimulated Jurkat cells. The test can be described thus: Human IL-2 Release Phenotypic Assay (Assay 3). Format: cell-based. Conditions: Homo sapiens, Jurkat, 48 h, Jurkat cells (clone E6-1), 200 ng/mL PMA + 300 ng/mL ionomycin, IL-2 by ELISA. As to the method:
This assay measured the inhibition by MALT1 inhibitors of the IL-2 release from stimulated Jurkat cells, a human immortalized T lymphocyte cell line. IL-2 production from Jurkat cells is regulated by activation of NFκB signalling, which is in turn regulated by MALT1 protease activity.
Jurkat cells (clone E6-1, ATCC) were cultured in RPMI1640 supplemented with 10% (v/v) FBS and 1% (v/v) penicillin/streptomycin (100× liquid stocks). Cells were seeded in 96-well white tissue culture-treated plates (Perkin Elmer) at 50 000 cells/well and incubated overnight at 37° C., 5% CO2. Test compounds in DMSO at half-log dilutions were added to the cells and incubated for 30 mins. Final DMSO concentration was 0.5%. Cells were then stimulated with 200 ng/mL PMA+300 ng/mL ionomycin and incubated for 48 hours. […] IC50 values were calculated using GraphPad Prism using 4-parameter non-linear regression curve fit.
Background: In an ELISA, binding on a coated surface is turned into a signal by an enzyme label.

Test [2] addresses T1, FL hMALT1 enzyme (Homo sapiens, UniProt Q9UDY8).
T1 sequence (Q9UDY8 1-824): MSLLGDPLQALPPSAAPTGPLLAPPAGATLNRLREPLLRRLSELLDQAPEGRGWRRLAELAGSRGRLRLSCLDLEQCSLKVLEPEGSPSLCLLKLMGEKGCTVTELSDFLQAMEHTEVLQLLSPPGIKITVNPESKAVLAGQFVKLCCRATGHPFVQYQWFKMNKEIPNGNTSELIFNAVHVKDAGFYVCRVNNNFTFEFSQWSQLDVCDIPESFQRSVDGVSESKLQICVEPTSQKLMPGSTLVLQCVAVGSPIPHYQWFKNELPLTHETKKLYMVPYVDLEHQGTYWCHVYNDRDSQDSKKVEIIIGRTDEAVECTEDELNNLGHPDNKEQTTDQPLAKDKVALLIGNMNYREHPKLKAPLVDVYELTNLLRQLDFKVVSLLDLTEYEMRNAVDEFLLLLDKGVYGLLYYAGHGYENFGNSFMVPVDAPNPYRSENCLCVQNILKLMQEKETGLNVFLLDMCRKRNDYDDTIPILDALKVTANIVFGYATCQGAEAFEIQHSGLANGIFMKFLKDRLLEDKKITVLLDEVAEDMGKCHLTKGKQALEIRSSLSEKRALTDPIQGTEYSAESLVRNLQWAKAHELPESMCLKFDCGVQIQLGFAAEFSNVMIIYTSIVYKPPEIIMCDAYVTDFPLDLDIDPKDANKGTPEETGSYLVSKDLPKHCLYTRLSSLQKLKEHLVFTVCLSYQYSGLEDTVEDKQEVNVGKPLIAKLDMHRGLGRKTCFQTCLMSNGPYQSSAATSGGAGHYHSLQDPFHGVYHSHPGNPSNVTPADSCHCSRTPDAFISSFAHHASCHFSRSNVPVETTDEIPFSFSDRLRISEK
In words: biochemical.

Molecules are shown by their SMILES.

With `CC(=O)N1CCC(C(=O)N(C)[C@@H](c2ccc(N[C@H]3Cc4ccccc4C3(C)C)cn2)C(F)(F)F)CC1` [Example 224, 1-Acetyl-N—((S)-1-(5-(((S)-1,1-dimethyl-2,3-dihydro-1H-inden-2-yl)amino)pyridin-2-yl)-2,2,2-trifluoroethyl)-N-methylpiperidine-4-carboxamide], the IC50 in test [1] is 200 nM.

Regarding `CN(C(=O)[C@H]1C[C@@H](NS(C)(=O)=O)C1)[C@@H](c1ccc(N[C@H]2Cc3ccccc3C2(C)C)cn1)C(F)(F)F` [Example 241, (1,3-cis)-N—((S)-1-(5-(((S)-1,1-Dimethyl-2,3-dihydro-1H-inden-2-yl)amino)pyridin-2-yl)-2,2,2-trifluoroethyl)-N-methyl-3-(methylsulfonamido)cyclobutane-1-carboxamide], the IC50 in test [1] came to 400 nM.

Turning to `CN(C(=O)[C@H]1C[C@H](NS(C)(=O)=O)C1)[C@@H](c1ccc(N[C@H]2Cc3ccccc3C2(C)C)cn1)C(F)(F)F` [Example 222, (1,3-trans)-N—((S)-1-(5-(((S)-1,1-Dimethyl-2,3-dihydro-1H-inden-2-yl)amino)pyridin-2-yl)-2,2,2-trifluoroethyl)-N-methyl-3-(methylsulfonamido)cyclobutane-1-carboxamide], the IC50 in test [1] turned out to be 260 nM.

Regarding `CN(C(=O)C1CCN(S(C)(=O)=O)CC1)[C@@H](c1ccc(N[C@H]2Cc3ccccc3C2(C)C)cn1)C(F)(F)F` [Example 223, N—((S)-1-(5-(((S)-1,1-Dimethyl-2,3-dihydro-1H-inden-2-yl)amino)pyridin-2-yl)-2,2,2-trifluoroethyl)-N-methyl-1-(methylsulfonyl)piperidine-4-carboxamide], the IC50 in test [1] is 150 nM.

As to `CC(=O)N1C[C@H](O)C[C@H]1C(=O)N(C)[C@@H](c1ccc(N[C@H]2Cc3ccccc3C2(C)C)cn1)C(F)(F)F` [Example 183, (2S,4R)-1-Acetyl-N—((S)-1-(5-(((S)-1,1-dimethyl-2,3-dihydro-1H-inden-2-yl)amino)pyridin-2-yl)-2,2,2-trifluoroethyl)-4-hydroxy-N-methylpyrrolidine-2-carboxamide], the IC50 in test [1] amounted to 510 nM.

For `CN(C(=O)[C@H]1CCC(=O)NC1)[C@@H](c1ccc(N[C@H]2Cc3ccccc3C2(C)C)nc1)C(F)(F)F` [Example 219], the concentration for half-maximal inhibition (IC50) in test [1] was 330 nM.

As for `CC(=O)N[C@H]1C[C@@H](C(=O)N(C)[C@@H](c2ccc(N[C@H]3Cc4ccccc4C3(C)C)cn2)C(F)(F)F)C1` [Example 182, (1,3-cis)-3-Acetamido-N—((S)-1-(5-(((S)-1,1-dimethyl-2,3-dihydro-1H-inden-2-yl)amino)pyridin-2-yl)-2,2,2-trifluoroethyl)-N-methylcyclobutane-1-carboxamide], the 50% inhibitory concentration (IC50) in test [1] worked out at 400 nM.

Regarding `CN(C(=O)[C@H]1CNC(=O)C1)[C@@H](c1ccc(N[C@H]2Cc3ccccc3C2(C)C)cn1)C(F)(F)F` [Example 166, (R)—N—((S)-1-(5-(((S)-1,1-Dimethyl-2,3-dihydro-1H-inden-2-yl)amino)pyridin-2-yl)-2,2,2-trifluoroethyl)-N-methyl-5-oxopyrrolidine-3-carboxamide], the IC50 in test [1] stood at 510 nM.

For `CN(C(=O)[C@@H]1C[C@@H](O)CN1S(C)(=O)=O)[C@@H](c1ccc(N[C@H]2Cc3ccccc3C2(C)C)cn1)C(F)(F)F` [Example 244, (2S,4R)—N—((S)-1-(5-(((S)-1,1-Dimethyl-2,3-dihydro-1H-inden-2-yl)amino)pyridin-2-yl)-2,2,2-trifluoroethyl)-4-hydroxy-N-methyl-1-(methylsulfonyl)pyrrolidine-2-carboxamide], the IC50 in test [1] turned out to be 270 nM.

Turning to `CN(C(=O)C1CCS(=O)(=O)CC1)[C@@H](c1ccc(NC2Cc3ccc(OC(F)F)cc3C2)cn1)C(F)(F)F` (stereo partly drawn) [Example 324, N-((1S)-1-(5-((5-(Difluoromethoxy)-2,3-dihydro-1H-inden-2-yl)amino)pyridin-2-yl)-2,2,2-trifluoroethyl)-N-methyltetrahydro-2H-thiopyran-4-carboxamide 1,1-dioxide], the IC50 in test [2] stood at 1000 nM.

In the case of `CN(C(=O)[C@H]1CCC(=O)NC1)[C@@H](c1ccc(NC2Cc3ccc(Cl)c(C4CC4)c3C2)cn1)C(F)(F)F` (single isomer, unassigned) [Example 329], in test [2], the IC50 stood at 680 nM.

For the molecule `CN(C(=O)C1CCNC(=O)C1)[C@@H](c1ccc(N[C@H]2Cc3ccc(Cl)cc3C2)cn1)C(F)(F)F` (single isomer, unassigned) [Example 313], the IC50 in test [2] is 190 nM.

In test [2], `CN(C(=O)C1CCS(=O)(=O)CC1)[C@@H](c1ccc(NC2Cc3ccc(Cl)c(Cl)c3C2)cn1)C(F)(F)F` (single isomer, unassigned) [Example 278] showed a half-maximal inhibitory concentration (IC50) of 350 nM.

The molecule `CN(C(=O)C1CCS(=O)(=O)CC1)[C@@H](c1ccc(NC2Cc3ccc(C4CC4)cc3C2)cn1)C(F)(F)F` (single isomer, unassigned) [Example 307] gave an IC50 in test [2] of 220 nM.

`CN(C(=O)C1CS(=O)(=O)C1)[C@@H](c1ccc(NC2Cc3ccc(Cl)c(Cl)c3C2)cn1)C(F)(F)F` (stereo partly drawn) [Example 355, N-((1S)-1-(5-((4,5-Dichloro-2,3-dihydro-1H-inden-2-yl)amino)pyridin-2-yl)-2,2,2-trifluoroethyl)-N-methylthietane-3-carboxamide 1,1-dioxide] had a half-maximal inhibitory concentration (IC50) in test [2] of 150 nM.

In test [2], `CN(C(=O)C1CC2(CNC2)C1)[C@@H](c1ccc(N[C@H]2Cc3ccccc3C2(C)C)cn1)C(F)(F)F` [Example 173, N—((S)-1-(5-(((S)-1,1-Dimethyl-2,3-dihydro-1H-inden-2-yl)amino)pyridin-2-yl)-2,2,2-trifluoroethyl)-N-methyl-2-azaspiro[3.3]heptane-6-carboxamide] came in with an IC50 of 130 nM.

Molecule `COc1cccc2c1CC(Nc1ccc([C@H](N(C)C(=O)C3CCS(=O)(=O)CC3)C(F)(F)F)nc1)C2` (single isomer, unassigned) [Example 177] showed an IC50 in test [2] of 6600 nM.

The molecule `CN(C(=O)C1CCS(=O)(=O)CC1)[C@@H](c1ccc(NC2Cc3cc(F)cc(F)c3C2)cn1)C(F)(F)F` (single isomer, unassigned) [Example 269] displayed an IC50 in test [2] of 150 nM.

Regarding `CN(C(=O)C1(NS(C)(=O)=O)CC1)[C@@H](c1ccc(NC2Cc3ccc(Cl)c(F)c3C2)cn1)C(F)(F)F` (stereo partly drawn) [Example 290, N-((1S)-1-(5-((5-Chloro-4-fluoro-2,3-dihydro-1H-inden-2-yl)amino)pyridin-2-yl)-2,2,2-trifluoroethyl)-N-methyl-1-(methylsulfonamido)-cyclopropane-1-carboxamide], in test [2], half-maximal inhibition (IC50) was put at 120 nM.

For the molecule `CN1CC(=O)NCC1C(=O)N(C)[C@@H](c1ccc(N[C@H]2Cc3ccccc3C2(C)C)cn1)C(F)(F)F` (single isomer, unassigned) [Example 201], it took 110 nM to reach half-maximal inhibition in test [2] (IC50).

The molecule `CN(C(=O)CN1CCNC1=O)[C@@H](c1ccc(NC2Cc3ccccc3C2(C)C)cn1)C(F)(F)F` (single isomer, unassigned) [Example 246] displayed an IC50 in test [2] of 330 nM.

With `CN(C(=O)C1COCC(=O)N1)[C@@H](c1ccc(NC2Cc3ccccc3C2(C)C)cn1)C(F)(F)F` (single isomer, unassigned) [Example 161], the IC50 in test [2] came out at 310 nM.

`CN(C(=O)C1CCS(=O)(=O)CC1)[C@@H](c1ccc(NC2Cc3cccc(F)c3C2)cn1)C(F)(F)F` (single isomer, unassigned) [Example 275]: the IC50 in test [2] stood at 520 nM.

`CNC(=O)C1(C(=O)N(C)[C@@H](c2ccc(NC3Cc4ccc(Cl)c(F)c4C3)cn2)C(F)(F)F)CC1` (stereo partly drawn) [Example 368, N-((1S)-1-(5-((5-Chloro-4-fluoro-2,3-dihydro-1H-inden-2-yl)amino)pyridin-2-yl)-2,2,2-trifluoroethyl)-N,N′-dimethylcyclopropane-1,1-dicarboxamide] showed a half-inhibitory concentration (IC50) in test [2] of 270 nM.

`CN(C(=O)C12CC(NS(C)(=O)=O)(C1)C2)[C@@H](c1ccc(NC2Cc3ccc(Cl)c(Cl)c3C2)cn1)C(F)(F)F` (single isomer, unassigned) [Example 322] returned a half-inhibitory concentration (IC50) in test [2] of 310 nM.

On to `CN(C(=O)[C@H]1C[C@]2(CCN2C)C1)[C@@H](c1ccc(NC2Cc3ccccc3C2(C)C)cn1)C(F)(F)F` (single isomer, unassigned) [Example 158], for which the half-inhibitory concentration (IC50) in test [2] turned out to be 440 nM.
